Measured values published in ChEMBL document CHEMBL5303762, “Data for DCP probe BI-8668” (2023).

Columns and labels:
hERG (KCNH2) = hERG (KCNH2) (Homo sapiens, UniProt Q12809); assay: HERG_DOFETILIDE Eurofins SafetyScreen44 (BI); details: probe dofetilide, compound concentration 10 uM, read-out: % Ctrl
[1] = target: Cholecystokinin receptor type A (Homo sapiens) (UniProt P32238); assay: CCKA/H Eurofins SafetyScreen44 (BI); details: Compound concentration 10.0 uM
[2] = target: Angiotensin-converting enzyme (Homo sapiens) (UniProt P12821); assay: ACE(HU_AMTCH400) Eurofins SafetyScreen44 (BI)
Chain of Angiotensin-converting enzyme (Homo sapiens) (P12821 whole entry): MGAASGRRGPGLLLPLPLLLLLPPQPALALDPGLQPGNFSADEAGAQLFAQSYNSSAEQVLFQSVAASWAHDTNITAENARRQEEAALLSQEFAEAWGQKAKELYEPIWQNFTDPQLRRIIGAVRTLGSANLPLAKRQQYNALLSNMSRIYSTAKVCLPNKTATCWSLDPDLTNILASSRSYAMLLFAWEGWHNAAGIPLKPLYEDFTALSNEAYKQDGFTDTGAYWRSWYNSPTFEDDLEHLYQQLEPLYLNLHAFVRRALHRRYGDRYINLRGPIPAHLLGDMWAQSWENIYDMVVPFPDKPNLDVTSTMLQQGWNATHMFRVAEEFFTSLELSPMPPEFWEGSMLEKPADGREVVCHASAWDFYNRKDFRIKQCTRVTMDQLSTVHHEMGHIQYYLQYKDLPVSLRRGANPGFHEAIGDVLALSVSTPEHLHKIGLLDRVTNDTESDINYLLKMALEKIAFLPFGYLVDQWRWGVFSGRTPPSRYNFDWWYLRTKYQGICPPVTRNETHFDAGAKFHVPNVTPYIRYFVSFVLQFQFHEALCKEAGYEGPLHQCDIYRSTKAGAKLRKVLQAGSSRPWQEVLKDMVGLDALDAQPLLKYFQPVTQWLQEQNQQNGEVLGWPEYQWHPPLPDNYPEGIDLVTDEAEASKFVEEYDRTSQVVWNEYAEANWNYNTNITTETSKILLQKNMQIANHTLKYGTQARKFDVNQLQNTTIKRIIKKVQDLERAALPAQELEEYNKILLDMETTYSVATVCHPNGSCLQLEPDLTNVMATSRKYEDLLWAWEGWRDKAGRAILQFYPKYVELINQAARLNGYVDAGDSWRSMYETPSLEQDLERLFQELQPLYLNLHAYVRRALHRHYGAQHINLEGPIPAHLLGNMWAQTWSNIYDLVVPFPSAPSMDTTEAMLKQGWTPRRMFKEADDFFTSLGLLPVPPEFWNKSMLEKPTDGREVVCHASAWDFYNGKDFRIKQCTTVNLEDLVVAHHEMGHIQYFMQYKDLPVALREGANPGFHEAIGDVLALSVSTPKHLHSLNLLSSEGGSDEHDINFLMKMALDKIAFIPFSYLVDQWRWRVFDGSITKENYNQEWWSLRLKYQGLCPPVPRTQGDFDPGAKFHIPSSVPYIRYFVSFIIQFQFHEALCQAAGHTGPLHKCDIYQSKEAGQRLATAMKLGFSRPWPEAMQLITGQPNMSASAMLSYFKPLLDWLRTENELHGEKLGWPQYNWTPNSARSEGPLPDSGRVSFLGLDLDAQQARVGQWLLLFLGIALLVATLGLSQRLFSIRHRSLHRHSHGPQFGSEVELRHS

[3] = target: Histamine H1 receptor (Homo sapiens) (UniProt P35367); assay: H1/PYRIL/HS Eurofins SafetyScreen44 (BI); details: Compound concentration 10.0 uM
Chain of Histamine H1 receptor (Homo sapiens) (P35367 whole entry): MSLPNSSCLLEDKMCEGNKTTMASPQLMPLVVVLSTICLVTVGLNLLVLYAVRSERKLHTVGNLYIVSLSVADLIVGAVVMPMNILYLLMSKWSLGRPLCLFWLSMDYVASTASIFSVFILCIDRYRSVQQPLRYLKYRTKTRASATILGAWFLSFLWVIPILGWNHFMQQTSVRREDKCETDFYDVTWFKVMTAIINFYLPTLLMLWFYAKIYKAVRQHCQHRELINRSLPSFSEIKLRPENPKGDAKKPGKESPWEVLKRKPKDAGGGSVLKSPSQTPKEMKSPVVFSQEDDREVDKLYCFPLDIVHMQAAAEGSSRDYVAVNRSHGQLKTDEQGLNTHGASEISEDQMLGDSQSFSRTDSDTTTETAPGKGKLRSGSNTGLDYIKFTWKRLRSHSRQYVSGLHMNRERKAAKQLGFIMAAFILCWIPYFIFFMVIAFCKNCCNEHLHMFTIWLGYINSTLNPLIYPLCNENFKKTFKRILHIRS

[4] = target: Endothelin-1 receptor (Homo sapiens) (UniProt P25101); assay: ETA/H Eurofins SafetyScreen44 (BI); details: Compound concentration 10.0 uM
[5] = target: Delta-type opioid receptor (Homo sapiens) (UniProt P41143); assay: DELTA2/H Eurofins SafetyScreen44 (BI); details: Compound concentration 10.0 uM
Chain of Delta-type opioid receptor (Homo sapiens) (P41143 whole entry): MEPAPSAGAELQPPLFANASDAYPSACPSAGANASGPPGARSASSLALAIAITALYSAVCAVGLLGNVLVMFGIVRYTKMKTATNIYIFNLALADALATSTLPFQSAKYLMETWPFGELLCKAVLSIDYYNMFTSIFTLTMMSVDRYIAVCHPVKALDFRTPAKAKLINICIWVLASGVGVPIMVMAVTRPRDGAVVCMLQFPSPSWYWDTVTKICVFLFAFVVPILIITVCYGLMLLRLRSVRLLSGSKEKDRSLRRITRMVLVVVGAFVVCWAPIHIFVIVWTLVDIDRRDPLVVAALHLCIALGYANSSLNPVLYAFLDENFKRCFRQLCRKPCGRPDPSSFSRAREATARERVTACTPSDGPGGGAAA

[6] = target: Adenosine receptor A2a (Homo sapiens) (UniProt P29274); assay: A2A/H Eurofins SafetyScreen44 (BI); details: filed as antagonist, Compound concentration 10.0 uM
[7] = target: Tyrosine-protein kinase Lck (Homo sapiens) (UniProt P06239); assay: LCK_CE Eurofins SafetyScreen44 (BI); details: Compound concentration 10.0 uM
[8] = target: Muscarinic acetylcholine receptor M3 (Homo sapiens) (UniProt P20309); assay: M3/H Eurofins SafetyScreen44 (BI); details: Compound concentration 10.0 uM
[9] = target: Androgen receptor (Homo sapiens) (UniProt P10275); assay: ANDROGEN/H Eurofins SafetyScreen44 (BI); details: Compound concentration 10.0 uM
Chain of Androgen receptor (Homo sapiens) (P10275 whole entry): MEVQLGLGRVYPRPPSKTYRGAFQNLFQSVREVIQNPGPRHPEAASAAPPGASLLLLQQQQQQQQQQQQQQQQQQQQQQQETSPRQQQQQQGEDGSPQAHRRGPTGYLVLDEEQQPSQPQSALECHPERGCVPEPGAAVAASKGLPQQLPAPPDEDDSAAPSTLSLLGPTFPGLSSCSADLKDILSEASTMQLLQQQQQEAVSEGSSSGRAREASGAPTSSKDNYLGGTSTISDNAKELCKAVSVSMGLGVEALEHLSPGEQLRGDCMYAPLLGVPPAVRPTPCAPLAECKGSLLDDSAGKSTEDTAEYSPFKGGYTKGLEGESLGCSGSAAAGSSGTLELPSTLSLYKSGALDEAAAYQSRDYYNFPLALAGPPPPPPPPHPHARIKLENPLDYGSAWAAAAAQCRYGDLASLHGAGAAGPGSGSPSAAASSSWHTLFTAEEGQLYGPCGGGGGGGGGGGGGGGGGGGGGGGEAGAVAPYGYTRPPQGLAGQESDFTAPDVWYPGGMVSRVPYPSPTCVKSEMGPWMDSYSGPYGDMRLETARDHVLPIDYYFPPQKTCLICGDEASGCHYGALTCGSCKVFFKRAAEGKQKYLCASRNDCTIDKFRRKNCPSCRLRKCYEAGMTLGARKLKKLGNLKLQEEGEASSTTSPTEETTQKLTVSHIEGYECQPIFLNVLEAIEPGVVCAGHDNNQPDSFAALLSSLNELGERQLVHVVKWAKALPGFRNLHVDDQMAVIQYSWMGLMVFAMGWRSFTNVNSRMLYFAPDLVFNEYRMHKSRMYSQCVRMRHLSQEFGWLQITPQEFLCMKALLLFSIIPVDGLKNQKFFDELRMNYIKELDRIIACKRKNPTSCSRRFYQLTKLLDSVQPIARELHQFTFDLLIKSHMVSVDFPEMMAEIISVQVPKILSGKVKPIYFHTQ

[10] = target: T1, Muscarinic acetylcholine receptor M2 (Homo sapiens) (UniProt P08172); assay: M2/H Eurofins SafetyScreen44 (BI); details: filed as antagonist, Compound concentration 10.0 uM
T1 sequence (whole entry): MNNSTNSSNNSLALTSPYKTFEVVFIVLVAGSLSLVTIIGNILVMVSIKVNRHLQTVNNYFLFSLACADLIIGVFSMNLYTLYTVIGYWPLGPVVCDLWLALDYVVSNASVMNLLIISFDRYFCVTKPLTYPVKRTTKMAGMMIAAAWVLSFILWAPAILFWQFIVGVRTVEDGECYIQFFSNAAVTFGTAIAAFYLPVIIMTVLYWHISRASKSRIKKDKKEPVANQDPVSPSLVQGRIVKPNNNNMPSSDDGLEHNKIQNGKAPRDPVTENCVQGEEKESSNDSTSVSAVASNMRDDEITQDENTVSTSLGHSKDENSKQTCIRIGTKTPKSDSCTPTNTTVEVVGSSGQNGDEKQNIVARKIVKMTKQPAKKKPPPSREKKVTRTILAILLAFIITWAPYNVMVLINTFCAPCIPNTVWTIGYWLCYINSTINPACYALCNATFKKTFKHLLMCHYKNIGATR

[11] = target: Neuronal acetylcholine receptor; alpha4/beta2 (Homo sapiens) (UniProt P17787+P43681); assay: N_NEURO_A4B2 Eurofins SafetyScreen44 (BI); assay type: protein-complex assay; details: filed as agonist, Compound concentration 10.0 uM
[12] = target: voltage-gated potassium channel (IKs; KCNQ1/KCNE1 as curated) (Rattus norvegicus, UniProt P15383+Q9Z0N7); assay: K+/VOLT/RA Eurofins SafetyScreen44 (BI); assay type: protein-complex assay; details: compound concentration 10 uM, read-out: % Ctrl
[13] = target: Sodium-dependent noradrenaline transporter (Homo sapiens) (UniProt P23975); assay: NEUP/H Eurofins SafetyScreen44 (BI); details: Compound concentration 10.0 uM
Chain of Sodium-dependent noradrenaline transporter (Homo sapiens) (P23975 whole entry): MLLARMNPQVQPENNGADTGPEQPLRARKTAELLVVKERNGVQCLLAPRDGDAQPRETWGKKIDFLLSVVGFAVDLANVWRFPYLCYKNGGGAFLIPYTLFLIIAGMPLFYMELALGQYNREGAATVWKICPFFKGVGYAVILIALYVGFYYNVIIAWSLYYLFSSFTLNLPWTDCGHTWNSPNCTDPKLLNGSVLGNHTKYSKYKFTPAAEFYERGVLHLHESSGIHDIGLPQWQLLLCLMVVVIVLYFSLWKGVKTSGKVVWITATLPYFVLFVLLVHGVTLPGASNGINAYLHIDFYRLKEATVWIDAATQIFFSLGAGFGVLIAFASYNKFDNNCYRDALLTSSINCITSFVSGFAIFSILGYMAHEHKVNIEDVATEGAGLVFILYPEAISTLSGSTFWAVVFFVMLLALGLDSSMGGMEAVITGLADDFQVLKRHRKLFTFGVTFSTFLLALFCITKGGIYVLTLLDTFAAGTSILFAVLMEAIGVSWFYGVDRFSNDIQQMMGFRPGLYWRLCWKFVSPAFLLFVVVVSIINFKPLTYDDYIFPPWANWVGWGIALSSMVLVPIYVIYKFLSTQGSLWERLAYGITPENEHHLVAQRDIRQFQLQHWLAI

[14] = target: T2, Alpha-2A adrenergic receptor (Homo sapiens) (UniProt P08913); assay: ALPHA2A/HU Eurofins SafetyScreen44 (BI); details: Compound concentration 10.0 uM
T2 sequence (whole entry): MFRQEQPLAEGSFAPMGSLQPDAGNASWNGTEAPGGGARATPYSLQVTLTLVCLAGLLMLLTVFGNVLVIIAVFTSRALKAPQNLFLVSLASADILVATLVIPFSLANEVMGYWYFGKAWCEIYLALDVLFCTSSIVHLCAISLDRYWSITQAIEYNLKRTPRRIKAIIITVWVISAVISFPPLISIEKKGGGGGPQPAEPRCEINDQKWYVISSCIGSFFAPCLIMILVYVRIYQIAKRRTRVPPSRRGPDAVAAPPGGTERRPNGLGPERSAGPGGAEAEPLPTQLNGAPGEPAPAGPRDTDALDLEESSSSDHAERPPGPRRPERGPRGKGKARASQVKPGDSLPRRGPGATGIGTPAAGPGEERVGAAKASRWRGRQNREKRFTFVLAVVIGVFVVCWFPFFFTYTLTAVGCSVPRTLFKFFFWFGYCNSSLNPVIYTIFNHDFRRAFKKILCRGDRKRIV

[15] = target: Vasopressin V1a receptor (Homo sapiens) (UniProt P37288); assay: V1A/HUM Eurofins SafetyScreen44 (BI); details: Compound concentration 10.0 uM
Chain of Vasopressin V1a receptor (Homo sapiens) (P37288 whole entry, looked up): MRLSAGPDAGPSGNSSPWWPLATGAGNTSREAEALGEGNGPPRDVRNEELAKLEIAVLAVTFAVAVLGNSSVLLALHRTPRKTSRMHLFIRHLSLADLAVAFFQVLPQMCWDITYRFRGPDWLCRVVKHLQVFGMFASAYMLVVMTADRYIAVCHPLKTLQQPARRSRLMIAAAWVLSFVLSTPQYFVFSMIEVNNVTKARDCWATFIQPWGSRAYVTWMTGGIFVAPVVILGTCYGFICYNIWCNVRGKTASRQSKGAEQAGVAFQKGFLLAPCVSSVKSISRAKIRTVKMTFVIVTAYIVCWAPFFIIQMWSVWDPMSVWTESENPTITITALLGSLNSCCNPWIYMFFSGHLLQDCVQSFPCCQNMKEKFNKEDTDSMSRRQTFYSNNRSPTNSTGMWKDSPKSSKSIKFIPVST

[16] = target: Sodium-dependent dopamine transporter (Homo sapiens) (UniProt Q01959); assay: DATRANS/HUM Eurofins SafetyScreen44 (BI); details: Compound concentration 10.0 uM
[17] = target: cGMP-inhibited 3',5'-cyclic phosphodiesterase 3A (Homo sapiens) (UniProt Q14432); assay: PDE3A Eurofins SafetyScreen44 (BI); details: Compound concentration 10.0 uM
[18] = target: Beta-2 adrenergic receptor (Homo sapiens) (UniProt P07550); assay: BETA2/HUM Eurofins SafetyScreen44 (BI); details: filed as antagonist, Compound concentration 10.0 uM
[19] = target: T3, 5-hydroxytryptamine receptor 1A (Homo sapiens) (UniProt P08908); assay: 5HT1A/H Eurofins SafetyScreen44 (BI); details: Compound concentration 10.0 uM
T3 sequence (whole entry): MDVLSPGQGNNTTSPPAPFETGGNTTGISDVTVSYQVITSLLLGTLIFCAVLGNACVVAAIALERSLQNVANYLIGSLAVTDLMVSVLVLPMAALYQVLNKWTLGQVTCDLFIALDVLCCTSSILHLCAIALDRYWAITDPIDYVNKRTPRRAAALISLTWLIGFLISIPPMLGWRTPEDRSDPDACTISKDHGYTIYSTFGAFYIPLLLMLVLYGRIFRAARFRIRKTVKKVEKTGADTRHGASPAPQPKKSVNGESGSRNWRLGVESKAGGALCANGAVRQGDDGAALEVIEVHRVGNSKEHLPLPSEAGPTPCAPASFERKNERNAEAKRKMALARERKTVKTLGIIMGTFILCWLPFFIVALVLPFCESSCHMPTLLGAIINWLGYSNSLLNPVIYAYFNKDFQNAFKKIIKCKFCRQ

[20] = target: 5-hydroxytryptamine receptor 2B (Homo sapiens) (UniProt P41595); assay: 5HT2B/H AG Eurofins SafetyScreen44 (BI); details: filed as agonist, Compound concentration 10.0 uM
Chain of 5-hydroxytryptamine receptor 2B (Homo sapiens) (P41595 whole entry): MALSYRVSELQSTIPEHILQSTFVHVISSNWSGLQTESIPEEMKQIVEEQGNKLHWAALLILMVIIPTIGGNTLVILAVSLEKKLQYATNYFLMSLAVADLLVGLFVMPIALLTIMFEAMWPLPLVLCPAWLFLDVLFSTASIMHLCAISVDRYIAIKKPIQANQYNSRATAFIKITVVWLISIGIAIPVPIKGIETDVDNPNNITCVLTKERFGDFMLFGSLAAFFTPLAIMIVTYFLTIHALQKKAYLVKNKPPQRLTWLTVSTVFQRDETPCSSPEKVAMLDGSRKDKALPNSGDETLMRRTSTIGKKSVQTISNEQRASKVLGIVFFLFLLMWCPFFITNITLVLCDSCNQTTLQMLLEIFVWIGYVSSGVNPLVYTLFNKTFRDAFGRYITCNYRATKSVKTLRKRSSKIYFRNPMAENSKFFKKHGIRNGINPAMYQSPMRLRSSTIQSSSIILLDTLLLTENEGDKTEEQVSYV

[21] = target: GABA-A receptor; anion channel (Rattus norvegicus) (UniProt O09028+P15431+P18506+P18508+P19969+P20236+P23574+P23576+P28471+P28473+P30191+P62813+P63079+P63138+Q91ZM7+Q9ES14); assay: BZD/CENTR/R Eurofins SafetyScreen44 (BI); assay type: protein-complex assay; details: Compound concentration 10.0 uM
[22] = target: D(2) dopamine receptor (Homo sapiens) (UniProt P14416); assay: D2SH_AGON Eurofins SafetyScreen44 (BI); details: filed as agonist, Compound concentration 10.0 uM
Chain of D(2) dopamine receptor (Homo sapiens) (P14416 whole entry): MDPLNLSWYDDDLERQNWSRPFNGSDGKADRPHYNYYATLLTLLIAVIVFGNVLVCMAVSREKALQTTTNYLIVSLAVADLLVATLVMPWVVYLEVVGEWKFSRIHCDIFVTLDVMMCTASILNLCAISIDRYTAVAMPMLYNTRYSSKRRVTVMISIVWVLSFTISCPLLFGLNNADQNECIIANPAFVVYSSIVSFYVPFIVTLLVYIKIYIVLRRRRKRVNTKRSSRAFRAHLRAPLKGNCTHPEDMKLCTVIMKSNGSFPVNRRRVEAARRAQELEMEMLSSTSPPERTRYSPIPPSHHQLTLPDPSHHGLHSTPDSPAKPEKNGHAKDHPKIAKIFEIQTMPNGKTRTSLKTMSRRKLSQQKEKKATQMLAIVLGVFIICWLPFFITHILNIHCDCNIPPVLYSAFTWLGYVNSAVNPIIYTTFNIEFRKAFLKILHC

[23] = target: Mu-type opioid receptor (Homo sapiens) (UniProt P35372); assay: MU/H Eurofins SafetyScreen44 (BI); details: Compound concentration 10.0 uM

Row | Structure (SMILES) | activity at 10 µM (hERG (KCNH2)) | residual activity [1] | residual activity ([2]; Compound concentration 10.0 uM) | residual activity [3] | residual activity [4] | residual activity [5] | residual activity [6] | residual activity [7] | residual activity [8] | residual activity [9] | residual activity [10] | residual activity [11] | activity at 10 µM [12] | residual activity [13] | residual activity [14] | residual activity [15] | residual activity [16] | residual activity [17] | residual activity [18] | residual activity [19] | other results
1 | CCn1c(CNC(=O)c2nc(Cl)cnc2N)[n+](CC)c2ccc(C(=O)N(C)CCN(C)C)cc21 | 91% (not active) | 84% | 55.6% | 101% | 100% | 95% | 110% | 95% | 20% | 106% | 36% | 101% | 99% (not active) | 105% | 112% | 109% | 83% | 100% | 94% | 107% | residual activity ([2]; Compound concentration 30.0 uM): 31%; residual activity ([2]; Compound concentration 100.0 uM): 24%; residual activity [20]: 92%; residual activity [21]: 130%; residual activity [22]: 101%; residual activity [23]: 95%
2 | CCn1c(CNC(=O)c2ncc(C)nc2N)[n+](CC)c2ccc(C(=O)N(C)CN(C)C)cc21 | 81% (not active) | 82% | 39% | 94% | 104% | 97% | 105% | 60% | 35% | 99% | 41% | 103% | 103% (not active) | 91% | 97% | 107% | 90% | 87% | 104% | 111% | residual activity [20]: 61%; residual activity [21]: 96%; residual activity [22]: 79%; residual activity [23]: 95%
